The text below walks through data of ChEMBL document CHEMBL1201862, “PubChem BioAssay data set” (2004).

Values joined by “and” are separate entries in the source; they are usually repeats but may differ in a detail not shown here. Equal values may be shown once.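 Where inhibition never reached the appropriate level, the endpoint shown equals the highest concentration tested. Otherwise, values were interpolated linearly from a five-concentration, 48-hour dose response in 96-well plates. Here, GI50 denotes the concentration required for 50% inhibition of growth.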 Active and inactive are the calls of the source. Rule as the data show it: active = GI50 up to about 1.1 µM and inactive = higher. Non-standard residues stand in square brackets, D forms with d. Residues, ends and D or L forms follow the SMILES beside them. *: point of attachment. Bn2Val = CC(C)[C@@H](C(=O)*)N(Cc1ccccc1)Cc1ccccc1; NMeV = CN[C@H](C(=O)O)C(C)C; X32 = COc1ccc(CN*)c(OC)c1; dNMeA = CN[C@H](C)C(=O)O A value given as a limit tells only on which side of the number the result lay.

Test systems include A498; A549; COLO 205; DU-145; HOP-92; MCF7; MDA-MB-231; MDA-MB-435; MOLT-4; SF-295; SK-MEL-28; SK-OV-3; SN12C; SW-620; T47D; TK-10; U-251; UACC-62; UO-31; Malme-3M.
Holding throughout (experiment): NCI-60 cell line screen, 48 h

Regarding `CSc1scc2c1/C(=N/NC(N)=O)CCC2`, the GI50 with A498 was 39.7 µM (inactive); in the experiment with A549, 78.3 µM (inactive); with COLO 205 it was > 100 µM (inactive); with DU-145, 45.2 µM (inactive); in the experiment with HOP-92, 2.34 µM (inactive); with MCF7, 90.4 µM (inactive). Also, the GI50 is > 100 µM (inactive) with MDA-MB-231; 52.8 µM (inactive) with MDA-MB-435; 58.1 µM (inactive) with MOLT-4; 60.5 µM (inactive) with SF-295; > 100 µM (inactive) in the experiment with SK-MEL-28; > 100 µM (inactive) with SK-OV-3. The GI50 with SN12C, in the experiment with SW-620, in the experiment on T47D, with TK-10, with U-251 and in the experiment with UACC-62 was > 100 µM (inactive) in each case. Further, the GI50 with UO-31 is > 100 µM (inactive).

Consider `CCOc1cc(/C=C2\N=C(c3ccccc3)N(c3nc4ccccc4s3)C2=O)ccc1O`, for which the GI50 in the experiment on A498 is 45.4 µM (inactive); with DU-145, 45.1 µM (inactive); with HOP-92 it was > 100 µM (inactive); in the experiment with MCF7, 33.3 µM (inactive); in the experiment with MDA-MB-231 it was > 100 µM (inactive); in the experiment on MDA-MB-435 it was 40.1 µM (inactive). For the same compound, the GI50 in the experiment with MOLT-4 is 19.5 µM (inactive); in the experiment on SF-295, 80.2 µM (inactive); in the experiment with SK-MEL-28, 64.4 µM (inactive); in the experiment on SK-OV-3, > 100 µM (inactive); in the experiment on SW-620 it was 47.9 µM (inactive); with T47D it was 40.6 µM (inactive). In addition, the GI50 with TK-10 was 56.9 µM (inactive); in the experiment with U-251 it was 47.9 µM (inactive); in the experiment with UO-31 it was 49 µM (inactive).

For the compound `CCc1c(Cc2cccc3ccccc23)n2c(nc1=O)SCC2OCCO` (stereo not given), the GI50 in the experiment with A498 was > 100 µM (inactive); in the experiment with A549, 77.3 µM (inactive); in the experiment on COLO 205, > 100 µM (inactive); with DU-145, 88.3 µM (inactive); with HOP-92 it was 0.328 µM (active); with MCF7, 50.5 µM (inactive). Moreover, the GI50 with MDA-MB-231 was > 100 µM (inactive); with MDA-MB-435, 18.2 µM (inactive); with MOLT-4 it was 26.6 µM (inactive); in the experiment on Malme-3M, > 100 µM (inactive); in the experiment on SK-MEL-28, > 100 µM (inactive); in the experiment with SN12C, > 100 µM (inactive). In addition, the GI50 is 70.5 µM (inactive) in the experiment on SW-620; 31 µM (inactive) in the experiment with T47D; > 100 µM (inactive) with TK-10; 76.9 µM (inactive) in the experiment on U-251; 56.5 µM (inactive) in the experiment on UACC-62; > 100 µM (inactive) in the experiment on UO-31.

`CS(=O)(=O)Nc1ccc2c(c1)N(S(C)(=O)=O)CC2COS(C)(=O)=O` (stereo not given): the GI50 is 85.9 µM (inactive) in the experiment on A498; > 100 µM (inactive) in the experiment on A549; > 100 µM (inactive) in the experiment on COLO 205; 58.9 µM (inactive) with DU-145; 33.2 µM (inactive) with HOP-92; > 10 µM (inactive) in the experiment with MCF7. Besides, the GI50 was > 100 µM (inactive) in the experiment on MDA-MB-231; > 100 µM (inactive) with MDA-MB-435; 32.5 µM (inactive) in the experiment on MOLT-4; 39.9 µM (inactive) in the experiment with Malme-3M; 58.7 µM (inactive) with SF-295; > 100 µM (inactive) in the experiment with SK-MEL-28. In addition, the GI50 with SN12C was > 100 µM (inactive); with SW-620, 32.2 µM (inactive); in the experiment with T47D, > 100 µM (inactive); in the experiment on TK-10, 36.8 µM (inactive); in the experiment with U-251, 25.8 µM (inactive); with UACC-62 it was > 100 µM (inactive). In the experiment on UO-31, the GI50 was > 100 µM (inactive).

With `COc1ccc(-c2c(C#N)c(N)n(C3OCC(OC(C)=O)C(OC(C)=O)C3OC(C)=O)c(=S)c2C#N)cc1` (stereo not given), the GI50 in the experiment with A498 is 32.7 µM (inactive) and 28.2 µM (inactive); with A549, 99.5 µM (inactive) and 65.3 µM (inactive); in the experiment on COLO 205, 36.1 µM (inactive) and 50.1 µM (inactive); in the experiment with DU-145, 64.4 µM (inactive) and 60.1 µM (inactive); with HOP-92 it was 16.4 µM (inactive) and 11.8 µM (inactive); in the experiment with MCF7 it was 27.5 µM (inactive) and 49.3 µM (inactive). The GI50 with MDA-MB-231 was 41.7 µM (inactive) and 33 µM (inactive); in the experiment on MDA-MB-435 it was 25.3 µM (inactive) and 35.7 µM (inactive); in the experiment on MOLT-4, 17.6 µM (inactive) and 14.3 µM (inactive); in the experiment with Malme-3M, 44.9 µM (inactive) and 37.5 µM (inactive); with SF-295 it was 46.9 µM (inactive) and 71.4 µM (inactive); in the experiment on SK-MEL-28, 61.4 µM (inactive) and 60.3 µM (inactive). For the same compound, the GI50 was 42.8 µM (inactive) and 24 µM (inactive) in the experiment on SK-OV-3; 34.6 µM (inactive) and 34.5 µM (inactive) in the experiment on SN12C; > 100 µM (inactive) and 93.5 µM (inactive) in the experiment with SW-620; 14.8 µM (inactive) and 26.7 µM (inactive) with T47D; 32.9 µM (inactive) and 54.5 µM (inactive) with U-251; 30.8 µM (inactive) and 40.9 µM (inactive) in the experiment with UACC-62. In the experiment with UO-31, the GI50 was 23.1 µM (inactive) and 22 µM (inactive).

`CC(=O)Oc1c(C)cc2c(c1C)C(C)(C)CN2C(=O)C(C)(C)C`: the GI50 in the experiment with A498 is 55.6 µM (inactive); in the experiment with A549, 83.8 µM (inactive); with COLO 205, 58.1 µM (inactive); in the experiment with DU-145, > 100 µM (inactive); in the experiment on HOP-92, 20.1 µM (inactive); in the experiment on MCF7, > 100 µM (inactive). For the same compound, the GI50 in the experiment on MDA-MB-231 is > 100 µM (inactive); in the experiment with MDA-MB-435, 77.8 µM (inactive); in the experiment on MOLT-4 it was 25.4 µM (inactive); in the experiment with SF-295 it was > 100 µM (inactive); in the experiment with SK-MEL-28, > 100 µM (inactive); in the experiment on SK-OV-3, > 100 µM (inactive). Besides, the GI50 was > 100 µM (inactive) with SN12C; > 100 µM (inactive) with SW-620; 31.6 µM (inactive) with T47D; > 100 µM (inactive) with TK-10; > 100 µM (inactive) with U-251; > 100 µM (inactive) in the experiment with UACC-62. For the same compound, in the experiment with UO-31, the GI50 was 41.8 µM (inactive).

Consider `CNC(=O)c1nn[nH]c1Sc1c([N+](=O)[O-])ncn1C`, for which the GI50 in the experiment on A498, in the experiment with A549, in the experiment on COLO 205, in the experiment with DU-145, in the experiment on HOP-92 and in the experiment with MCF7 was > 100 µM (inactive) in each case. The GI50 in the experiment with MDA-MB-231, in the experiment with MDA-MB-435, in the experiment with MOLT-4, in the experiment with SF-295, with SK-MEL-28 and in the experiment with SK-OV-3 was > 100 µM (inactive) throughout. Further, the GI50 with SN12C, in the experiment on SW-620, in the experiment on T47D, in the experiment on TK-10, in the experiment with U-251 and in the experiment on UACC-62 was > 100 µM (inactive) in each case. The GI50 in the experiment on UO-31 was > 100 µM (inactive).

With `O=C(O)c1ccccc1NC(=S)c1ccccc1`, the GI50 with A498 is 61.9 µM (inactive); with A549, 51.3 µM (inactive); in the experiment on COLO 205 it was 39.1 µM (inactive); in the experiment on DU-145, > 100 µM (inactive); in the experiment with HOP-92, 11.8 µM (inactive); in the experiment with MCF7 it was 31.3 µM (inactive). The GI50 is 60.5 µM (inactive) in the experiment on MDA-MB-231; 52.8 µM (inactive) with MDA-MB-435; 67.5 µM (inactive) in the experiment with MOLT-4; 19.1 µM (inactive) with Malme-3M; 35.2 µM (inactive) in the experiment on SF-295; 76.4 µM (inactive) in the experiment on SK-OV-3. Besides, the GI50 in the experiment with SN12C was 66.4 µM (inactive); with SW-620 it was 46.5 µM (inactive); in the experiment with T47D, 34.2 µM (inactive); with TK-10 it was 35.8 µM (inactive); with U-251, 47.8 µM (inactive); in the experiment with UACC-62, 30.3 µM (inactive). In addition, in the experiment on UO-31, the GI50 was 51.8 µM (inactive).

With `CC1CCC2(O)C3(C)CC4(O)OC2(C1O)C1(O)C3(O)C(OC(=O)c2ccc[nH]2)C(O)(C(C)C)C41C` (stereo not given), the GI50 with A498, in the experiment with A549, with COLO 205, in the experiment on DU-145, in the experiment on HOP-92 and in the experiment with MCF7 was > 100 µM (inactive) in each case. The GI50 with MDA-MB-231, in the experiment on MDA-MB-435, with Malme-3M, with SF-295, with SK-MEL-28 and in the experiment with SK-OV-3 was > 100 µM (inactive) throughout. Besides, the GI50 with SN12C, in the experiment on SW-620, in the experiment on T47D, in the experiment with TK-10, with U-251 and with UACC-62 was > 100 µM (inactive) each time. Further, in the experiment on UO-31, the GI50 is > 100 µM (inactive).

For `COc1ccc(CNC(=O)[C@@H]2CCCN2C(=O)[C@@H](C)N(C)C(=O)[C@H](C(C)C)N(C)C(=O)[C@@H](NC(=O)[C@H](C(C)C)N(Cc2ccccc2)Cc2ccccc2)C(C)C)c(OC)c1` (Bn2Val-V[NMeV][dNMeA]P-X32), the GI50 with A498 is 2.96 µM (inactive); in the experiment on A549 it was 3.77 µM (inactive); in the experiment with COLO 205 it was 2.29 µM (inactive); in the experiment on DU-145, 6.15 µM (inactive); with HOP-92, 2.74 µM (inactive); with MCF7, 3.19 µM (inactive). The GI50 is 1.51 µM (inactive) in the experiment with MDA-MB-231; 2.61 µM (inactive) with MDA-MB-435; 5.12 µM (inactive) with Malme-3M; 3.34 µM (inactive) with SF-295; 3.29 µM (inactive) in the experiment with SK-MEL-28; 10.7 µM (inactive) in the experiment on SK-OV-3. Besides, the GI50 with SN12C was 1.78 µM (inactive); with SW-620 it was 3.5 µM (inactive); with T47D, 10.6 µM (inactive); in the experiment on TK-10, 4.47 µM (inactive); in the experiment with U-251, 2.25 µM (inactive); in the experiment with UACC-62, 4.18 µM (inactive). For the same compound, the GI50 in the experiment with UO-31 is 3.86 µM (inactive).
